Measured values published in patent US20080171355A1, “DEVICE FOR TESTING THE EFFECTIVENESS OF DISINFECTANTS ON PROTOZOAN PARASITES” (priority 2006, published 2008).

System: Oocysts of Eimeria acervulina
Assay type: cell-based

Question: How did the “Sporulation Rate (%)” value turn out when `CC(=O)OO` [Peracetic Acid] was run?
Answer: 65.9%
